This is an account of results in the NIST ThermoML archive (doi:10.1021/acs.jced.6b00497).

For the data set the following is noted: Crystal; DTA.

Molecules are shown by their SMILES. Numbers after ± are expanded uncertainties.

`O=C(O)c1cc(N=Nc2ccc(S(=O)(=O)Nc3ccccn3)cc2)ccc1O` [Sulfasalazine]: the Normal melting temperature turned out to be 220.00 ± 1 °C.
